Measurements taken from BindingDB's records for patent US20240116947 (Chiesi Farmaceutici, 2024).

Target: T1, TGF-beta receptor type-1 (Homo sapiens, UniProt P36897)
T1 sequence (P36897 whole entry): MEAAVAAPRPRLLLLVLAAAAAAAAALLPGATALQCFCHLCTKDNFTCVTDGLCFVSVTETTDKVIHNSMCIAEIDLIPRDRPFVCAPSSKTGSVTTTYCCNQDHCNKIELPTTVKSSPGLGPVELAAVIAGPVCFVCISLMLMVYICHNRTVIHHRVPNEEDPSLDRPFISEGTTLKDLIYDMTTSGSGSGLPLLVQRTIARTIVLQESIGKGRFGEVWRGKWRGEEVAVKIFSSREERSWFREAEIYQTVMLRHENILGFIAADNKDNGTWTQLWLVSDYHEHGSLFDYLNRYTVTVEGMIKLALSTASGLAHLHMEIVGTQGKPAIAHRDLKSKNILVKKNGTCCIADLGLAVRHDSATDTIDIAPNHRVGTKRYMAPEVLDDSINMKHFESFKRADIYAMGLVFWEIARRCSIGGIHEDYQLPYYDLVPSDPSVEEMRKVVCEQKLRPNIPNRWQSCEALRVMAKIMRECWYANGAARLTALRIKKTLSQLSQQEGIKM
Assay: Enzymatic Activity Assay
Procedure: The enzymatic activity of compounds of the present invention was monitored measuring the formation of ADP using the ADP-GLO Kinases assay. Following the incubation of the purified enzyme, a substrate and ATP, the produced ADP was converted into ATP, which in turn was converted into light by Ultra-Glo Luciferase. The luminescent signal positively correlated with ADP amount and kinase activity. […] All reactions/incubations were performed at 25° C. Compound and ALK5 kinase were mixed and incubated for 15 mins. […] After an incubation of 150 min, the reaction was stopped, and ADP production detected with ADP-Glo kit according to manufacturer's indications. The assay was performed in 384-well format and was validated using a selection of reference compounds that was tested in 11 point concentration-response curve.

**Q.** For O=C(CCN(C1COC1)C1COC1)Nc1cc(N2CCOc3cnc(-c4cc(Cl)ccc4F)cc32)ccn1 [US20240116947, Example 21], which IC50 is on record?
**A.** < 1 nM
